From ChEMBL document CHEMBL4382231, “Chemical preparation, biological evaluation and 3D-QSAR of ethoxysulfuron derivatives as novel antifungal agents targeting acetohydroxyacid synthase” (Eur J Med Chem, 2019)

Key:
[1] = Inhibition of Candida albicans AHAS catalytic subunit using pyruvate as substrate measured after 30 mins by colorimetric method
Candida albicans [2] = experiment: Antifungal activity against Candida albicans SC5314 cultured in RPMI 1640 media after 24 hrs by broth microdilution method; assay type: functional; conditions: SC5314, 24 h
Candida albicans [3] = experiment: Antifungal activity against Candida albicans SC5314 cultured in YNB media after 24 hrs by broth microdilution method; assay type: functional; conditions: SC5314, 24 h

Row | Structure (SMILES) | MIC (Candida albicans [2]) [µg/mL] | MIC (Candida albicans [3]) [µg/mL] | Ki [1] [nM] | pKi [1]
1 | Cc1cc(C)nc(NC(=O)[N-]S(=O)(=O)Oc2ccc([N+](=O)[O-])cc2)n1.[Na+] | > 100 | > 100 | 5660 | 5.24
2 | COc1cc(Cl)nc(NC(=O)[N-]S(=O)(=O)Oc2ccccc2OCCCl)n1.[Na+] | > 100 | > 100 | 87 | 7.06
3 | COc1cc(Cl)nc(NC(=O)[N-]S(=O)(=O)Oc2ccccc2C(=O)OCCI)n1.[Na+] | > 100 | > 100 | 547 | 6.26
4 | COc1cc(C)nc(NC(=O)[N-]S(=O)(=O)Oc2ccccc2C(=O)OCCI)n1.[Na+] | > 100 | > 100 | 610 | 6.21
5 | COC(=O)c1ccccc1S(=O)(=O)NC(=O)Nc1nccc(C)n1 [MONOSULFURON ESTER] | – | – | 16800 | –
6 | Cc1cc(Cl)nc(NC(=O)[N-]S(=O)(=O)Oc2ccccc2C(=O)OC(C)C)n1.[Na+] | > 100 | > 100 | 22900 | 4.64
7 | COc1cc(C)nc(NC(=O)[N-]S(=O)(=O)Oc2ccccc2OCCI)n1.[Na+] | > 100 | 10 | 91 | 7.04
8 | COc1cc(Br)nc(NC(=O)[N-]S(=O)(=O)Oc2ccccc2[N+](=O)[O-])n1.[Na+] | > 100 | > 100 | 247 | 6.6
9 | COc1cc(C)nc(NC(=O)[N-]S(=O)(=O)Oc2ccccc2C(=O)OC(C)C)n1.[Na+] | > 100 | 80 | 268 | –
10 | COC(=O)c1ccccc1OS(=O)(=O)[N-]C(=O)Nc1nc(I)cc(OC)n1.[Na+] | > 100 | > 100 | 66 | 7.18
11 | COc1cc(Cl)nc(NC(=O)[N-]S(=O)(=O)Oc2ccccc2C(=O)Oc2ccccc2)n1.[Na+] | > 100 | > 100 | 25400 | 4.58
12 | Cc1cc(C)nc(NC(=O)[N-]S(=O)(=O)Oc2ccccc2C(=O)OC(C)C)n1.[Na+] | > 100 | > 100 | 9840 | 5
13 | COc1cc(I)nc(NC(=O)[N-]S(=O)(=O)Oc2ccccc2OCCCl)n1.[Na+] | 100 | 10 | 68 | 7.16
14 | Cc1cc(Cl)nc(NC(=O)[N-]S(=O)(=O)Oc2ccccc2C(=O)OCCI)n1.[Na+] | > 100 | > 100 | 2330 | 5.64
15 | Cc1cc(Cl)nc(NC(=O)[N-]S(=O)(=O)Oc2ccc([N+](=O)[O-])cc2)n1.[Na+] | > 100 | > 100 | > 50000 | –
16 | COc1cc(C)nc(NC(=O)[N-]S(=O)(=O)Oc2ccccc2OCCCl)n1.[Na+] | 25 | 10 | 78 | 7.1
17 | COc1cc(Cl)nc(NC(=O)[N-]S(=O)(=O)Oc2ccccc2C(=O)OC(C)C)n1.[Na+] | > 100 | > 100 | 4560 | 5.46
18 | Cc1cc(C)nc(NC(=O)[N-]S(=O)(=O)Oc2ccccc2C(=O)Oc2ccccc2)n1.[Na+] | > 100 | > 100 | 25700 | 4.6
19 | Cc1cc(C)nc(NC(=O)[N-]S(=O)(=O)Oc2ccccc2OCCI)n1.[Na+] | > 100 | > 100 | 3570 | 5.45

Row | Structure (SMILES) | MIC (Candida albicans [2]) [µg/mL] | MIC (Candida albicans [3]) [µg/mL] | Ki [1] [nM] | pKi [1]
20 | COc1cc(Br)nc(NC(=O)[N-]S(=O)(=O)Oc2ccccc2C(=O)OC(C)C)n1.[Na+] | > 100 | > 100 | 1510 | 5.82
21 | COc1cc(Br)nc(NC(=O)[N-]S(=O)(=O)Oc2ccccc2C(=O)OCCCl)n1.[Na+] | > 100 | > 100 | 379 | 6.41
22 | Cc1cc(Cl)nc(NC(=O)[N-]S(=O)(=O)Oc2ccccc2[N+](=O)[O-])n1.[Na+] | > 100 | 40 | 103 | 6.99
23 | CCCOC(=O)c1ccccc1OS(=O)(=O)[N-]C(=O)Nc1nc(Br)cc(OC)n1.[Na+] | > 100 | > 100 | 758 | 6.16
24 | Cc1cc(C)nc(NC(=O)[N-]S(=O)(=O)Oc2ccccc2C(=O)OCCCl)n1.[Na+] | > 100 | > 100 | 3360 | 5.48
25 | Cc1cc(Cl)nc(NC(=O)[N-]S(=O)(=O)Oc2ccccc2C(=O)OCCCl)n1.[Na+] | > 100 | > 100 | 761 | 6.09
26 | CCCOC(=O)c1ccccc1OS(=O)(=O)[N-]C(=O)Nc1nc(I)cc(OC)n1.[Na+] | > 100 | > 100 | 862 | 6.06
27 | COc1cc(I)nc(NC(=O)[N-]S(=O)(=O)Oc2ccccc2OCCI)n1.[Na+] | > 100 | 20 | 637 | 6.18
28 | CCCOC(=O)c1ccccc1OS(=O)(=O)[N-]C(=O)Nc1nc(C)cc(C)n1.[Na+] | > 100 | > 100 | 2690 | 5.57
29 | CCCOC(=O)c1ccccc1OS(=O)(=O)[N-]C(=O)Nc1nc(C)cc(Cl)n1.[Na+] | > 100 | > 100 | 35500 | –
30 | Cc1cc(Cl)nc(NC(=O)[N-]S(=O)(=O)Oc2ccccc2OCCCl)n1.[Na+] | > 100 | > 100 | 95 | 7.02
31 | COc1cc(I)nc(NC(=O)[N-]S(=O)(=O)Oc2ccccc2[N+](=O)[O-])n1.[Na+] | > 100 | 40 | 523 | 6.28
32 | Cc1cc(C)nc(NC(=O)[N-]S(=O)(=O)Oc2ccccc2OCCCl)n1.[Na+] | > 100 | > 100 | 822 | 6.08
33 | COC(=O)c1ccccc1OS(=O)(=O)[N-]C(=O)Nc1nc(C)cc(Cl)n1.[Na+] | > 100 | > 100 | 85.5 | 7.06
34 | COc1cc(Cl)nc(NC(=O)[N-]S(=O)(=O)Oc2ccccc2C(=O)OCC(F)(F)F)n1.[Na+] | > 100 | > 100 | 265 | 6.57
35 | COc1cc(C)nc(NC(=O)[N-]S(=O)(=O)Oc2ccccc2C(=O)OCC(F)(F)F)n1.[Na+] | > 100 | 20 | 310 | 6.51
36 | Cc1cc(C)nc(NC(=O)[N-]S(=O)(=O)Oc2ccccc2C(=O)OCCI)n1.[Na+] | > 100 | > 100 | 15000 | 4.82
37 | COc1cc(Cl)nc(NC(=O)[N-]S(=O)(=O)Oc2ccccc2OCCI)n1.[Na+] | > 100 | > 100 | 583 | 6.23

Second part, led by results:

Row | MIC (Candida albicans [2]) [µg/mL] | MIC (Candida albicans [3]) [µg/mL] | Structure (SMILES) | Ki [1] [nM] | pKi [1]
38 | > 100 | > 100 | CCOC(=O)c1ccc(OS(=O)(=O)[N-]C(=O)Nc2nc(OC)cc(OC)n2)cc1.[Na+] | > 50000 | –
39 | > 100 | > 100 | CCOC(=O)c1ccc(OS(=O)(=O)[N-]C(=O)Nc2nc(Cl)cc(OC)n2)cc1.[Na+] | 15400 | 4.81
40 | > 100 | > 100 | CCOC(=O)c1cccc(OS(=O)(=O)[N-]C(=O)Nc2nc(C)cc(C)n2)c1.[Na+] | 36800 | 4.44
41 | > 100 | > 100 | CCCOC(=O)c1ccccc1OS(=O)(=O)[N-]C(=O)Nc1nc(C)cc(OC)n1.[Na+] | 1490 | –
42 | > 100 | > 100 | CCOC(=O)c1cccc(OS(=O)(=O)[N-]C(=O)Nc2nc(C)cc(OC)n2)c1.[Na+] | 1640 | 5.78
43 | > 100 | > 100 | CCCOC(=O)c1ccccc1OS(=O)(=O)[N-]C(=O)Nc1nc(OC)cc(OC)n1.[Na+] | 260 | 6.59
44 | > 100 | > 100 | COC(=O)c1ccccc1OS(=O)(=O)[N-]C(=O)Nc1nc(Br)cc(OC)n1.[Na+] | 643 | 6.28
45 | 100 | 10 | CCOC(=O)c1ccccc1OS(=O)(=O)[N-]C(=O)Nc1nc(I)cc(OC)n1.[Na+] | 11.5 | 7.91
46 | > 100 | > 100 | COc1cc(Cl)nc(NC(=O)[N-]S(=O)(=O)Oc2ccc([N+](=O)[O-])cc2)n1.[Na+] | 28000 | 4.55
47 | > 100 | > 100 | COc1cc(OC)nc(NC(=O)[N-]S(=O)(=O)Oc2ccccc2C(=O)OCCI)n1.[Na+] | 95 | 7.02
48 | > 100 | 20 | COc1cc(OC)nc(NC(=O)[N-]S(=O)(=O)Oc2ccccc2C(=O)OC(C)C)n1.[Na+] | 405 | 6.4
49 | > 100 | > 100 | COc1cc(C)nc(NC(=O)[N-]S(=O)(=O)Oc2ccc([N+](=O)[O-])cc2)n1.[Na+] | > 50000 | –
50 | > 100 | > 100 | COc1cc(OC)nc(NC(=O)[N-]S(=O)(=O)Oc2ccccc2C(=O)Oc2ccccc2)n1.[Na+] | 5860 | 5.23
51 | > 100 | > 100 | CCOC(=O)c1ccc(OS(=O)(=O)[N-]C(=O)Nc2nc(C)cc(Cl)n2)cc1.[Na+] | > 50000 | –
52 | > 100 | > 100 | COC(=O)c1ccccc1OS(=O)(=O)[N-]C(=O)Nc1nc(Cl)cc(OC)n1.[Na+] | 55 | 7.26
53 | > 100 | > 100 | CCCOC(=O)c1ccccc1OS(=O)(=O)[N-]C(=O)Nc1nc(Cl)cc(OC)n1.[Na+] | 235 | 6.62
54 | > 100 | > 100 | CCOC(=O)c1cccc(OS(=O)(=O)[N-]C(=O)Nc2nc(C)cc(Cl)n2)c1.[Na+] | > 50000 | –
55 | > 100 | 10 | COc1cc(OC)nc(NC(=O)[N-]S(=O)(=O)Oc2ccccc2C(=O)OCC(F)(F)F)n1.[Na+] | 78 | 7.11
